Measured values: the NIST ThermoML archive (doi:10.1016/j.tca.2005.04.030)
Numbers after ± are expanded uncertainties.

How the values were obtained:
[1] = refractive index (Na D-line) (dimensionless); xn = mol fraction of the nth substance listed; conditions: 298 K, 101 kPa, Liquid, ATAGO RX-1000
[2] = xn = mol fraction of the nth substance listed; conditions: 298 K, 101 kPa, Liquid; for speed of sound: Anton Paar DSA 48; for mass density: Vibrating tube method

## CCCCOC(C)(C)C [butane, 1-(1,1-dimethylethoxy)-] + CCO
[1]; x1 = 0.0493
  refractive index: 1.36389 ± 0.0001
[1]; x1 = 0.0589
  refractive index: 1.36463 ± 0.0001
[1]; x1 = 0.0797
  refractive index: 1.36652 ± 0.0001
[1]; x1 = 0.1006
  refractive index: 1.36783 ± 0.0001
[1]; x1 = 0.1555
  refractive index: 1.37143 ± 0.0001
[1]; x1 = 0.1947
  refractive index: 1.37365 ± 9e-05
[1]; x1 = 0.1978
  refractive index: 1.37382 ± 9e-05
[1]; x1 = 0.2528
  refractive index: 1.3765 ± 9e-05
[1]; x1 = 0.2923
  refractive index: 1.37818 ± 9e-05
[1]; x1 = 0.2967
  refractive index: 1.37834 ± 9e-05
[1]; x1 = 0.3512
  refractive index: 1.38037 ± 8e-05
[1]; x1 = 0.3966
  refractive index: 1.38183 ± 8e-05
[1]; x1 = 0.397
  refractive index: 1.38186 ± 8e-05
[1]; x1 = 0.4313
  refractive index: 1.38287 ± 8e-05
[1]; x1 = 0.4999
  refractive index: 1.38462 ± 7e-05
[1]; x1 = 0.5118
  refractive index: 1.38494 ± 7e-05
[1]; x1 = 0.559
  refractive index: 1.38599 ± 7e-05
[1]; x1 = 0.5953
  refractive index: 1.38674 ± 7e-05
[1]; x1 = 0.5964
  refractive index: 1.38674 ± 7e-05
[1]; x1 = 0.6627
  refractive index: 1.38795 ± 6e-05
[1]; x1 = 0.6853
  refractive index: 1.38828 ± 6e-05
[1]; x1 = 0.7044
  refractive index: 1.38862 ± 6e-05
[1]; x1 = 0.7441
  refractive index: 1.3892 ± 6e-05
[1]; x1 = 0.7814
  refractive index: 1.3897 ± 6e-05
[1]; x1 = 0.7853
  refractive index: 1.38986 ± 6e-05
[1]; x1 = 0.8493
  refractive index: 1.3905 ± 5e-05
[1]; x1 = 0.9072
  refractive index: 1.39106 ± 5e-05
[1]; x1 = 0.9404
  refractive index: 1.39132 ± 5e-05
[2]; x1 = 0.0493
  speed of sound: 1141 ± 1 m/s
  mass density: 782.41 ± 0.22 kg/m3
[2]; x1 = 0.0589
  speed of sound: 1139 ± 1 m/s
  mass density: 781.92 ± 0.22 kg/m3
[2]; x1 = 0.0797
  speed of sound: 1139 ± 1 m/s
  mass density: 780.9 ± 0.22 kg/m3
[2]; x1 = 0.1006
  speed of sound: 1136 ± 1 m/s
  mass density: 779.92 ± 0.22 kg/m3
[2]; x1 = 0.1555
  speed of sound: 1133 ± 1 m/s
  mass density: 777.57 ± 0.21 kg/m3
[2]; x1 = 0.1947
  speed of sound: 1132 ± 1 m/s
  mass density: 776.05 ± 0.21 kg/m3
[2]; x1 = 0.1978
  speed of sound: 1132 ± 1 m/s
  mass density: 775.98 ± 0.21 kg/m3
[2]; x1 = 0.2528
  speed of sound: 1129 ± 1 m/s
  mass density: 773.99 ± 0.2 kg/m3
[2]; x1 = 0.2923
  speed of sound: 1127 ± 1 m/s
  mass density: 772.71 ± 0.2 kg/m3
[2]; x1 = 0.2967
  speed of sound: 1128 ± 1 m/s
  mass density: 772.6 ± 0.2 kg/m3
[2]; x1 = 0.3512
  speed of sound: 1125 ± 1 m/s
  mass density: 770.96 ± 0.19 kg/m3
[2]; x1 = 0.3966
  speed of sound: 1124 ± 1 m/s
  mass density: 769.83 ± 0.19 kg/m3
[2]; x1 = 0.397
  speed of sound: 1124 ± 1 m/s
  mass density: 769.71 ± 0.19 kg/m3
[2]; x1 = 0.4313
  speed of sound: 1123 ± 1 m/s
  mass density: 768.83 ± 0.18 kg/m3
[2]; x1 = 0.4999
  speed of sound: 1122 ± 1 m/s
  mass density: 767.3 ± 0.18 kg/m3
[2]; x1 = 0.5118
  speed of sound: 1121 ± 1 m/s
  mass density: 766.95 ± 0.17 kg/m3
[2]; x1 = 0.559
  speed of sound: 1120 ± 1 m/s
  mass density: 765.94 ± 0.17 kg/m3
[2]; x1 = 0.5953
  speed of sound: 1119 ± 1 m/s
  mass density: 765.3 ± 0.18 kg/m3
[2]; x1 = 0.5964
  speed of sound: 1119 ± 1 m/s
  mass density: 765.18 ± 0.17 kg/m3
[2]; x1 = 0.6627
  speed of sound: 1118 ± 1 m/s
  mass density: 763.92 ± 0.16 kg/m3
[2]; x1 = 0.6853
  speed of sound: 1120 ± 1 m/s
  mass density: 763.6 ± 0.15 kg/m3
[2]; x1 = 0.7044
  speed of sound: 1118 ± 1 m/s
  mass density: 763.16 ± 0.15 kg/m3
[2]; x1 = 0.7441
  speed of sound: 1117 ± 1 m/s
  mass density: 762.45 ± 0.15 kg/m3
[2]; x1 = 0.7814
  speed of sound: 1117 ± 1 m/s
  mass density: 761.8 ± 0.15 kg/m3
[2]; x1 = 0.7853
  speed of sound: 1118 ± 1 m/s
  mass density: 761.72 ± 0.15 kg/m3
[2]; x1 = 0.8493
  speed of sound: 1116 ± 1 m/s
  mass density: 760.58 ± 0.14 kg/m3
[2]; x1 = 0.9072
  speed of sound: 1115 ± 1 m/s
  mass density: 759.5 ± 0.14 kg/m3
[2]; x1 = 0.9404
  speed of sound: 1115 ± 1 m/s
  mass density: 758.85 ± 0.14 kg/m3

## CCCCOC(C)(C)C [butane, 1-(1,1-dimethylethoxy)-] + CO
[1]; x1 = 0.0406
  refractive index: 1.33673 ± 0.00011
[1]; x1 = 0.0518
  refractive index: 1.33916 ± 0.00011
[1]; x1 = 0.0974
  refractive index: 1.34774 ± 0.0001
[1]; x1 = 0.0984
  refractive index: 1.34786 ± 0.0001
[1]; x1 = 0.1493
  refractive index: 1.35545 ± 0.0001
[1]; x1 = 0.198
  refractive index: 1.36125 ± 0.0001
[1]; x1 = 0.2051
  refractive index: 1.36198 ± 0.0001
[1]; x1 = 0.2448
  refractive index: 1.3658 ± 9e-05
[1]; x1 = 0.2974
  refractive index: 1.37001 ± 9e-05
[1]; x1 = 0.3373
  refractive index: 1.37281 ± 9e-05
[1]; x1 = 0.3581
  refractive index: 1.37411 ± 8e-05
[1]; x1 = 0.3783
  refractive index: 1.37529 ± 8e-05
[1]; x1 = 0.3922
  refractive index: 1.37605 ± 8e-05
[1]; x1 = 0.4633
  refractive index: 1.37952 ± 8e-05
[1]; x1 = 0.4954
  refractive index: 1.38087 ± 7e-05
[1]; x1 = 0.5003
  refractive index: 1.38106 ± 7e-05
[1]; x1 = 0.5598
  refractive index: 1.38325 ± 7e-05
[1]; x1 = 0.5955
  refractive index: 1.3845 ± 7e-05
[1]; x1 = 0.6138
  refractive index: 1.38496 ± 7e-05
[1]; x1 = 0.6463
  refractive index: 1.38588 ± 6e-05
[1]; x1 = 0.6737
  refractive index: 1.3866 ± 6e-05
[1]; x1 = 0.6923
  refractive index: 1.38706 ± 6e-05
[1]; x1 = 0.721
  refractive index: 1.38773 ± 6e-05
[1]; x1 = 0.7904
  refractive index: 1.38914 ± 6e-05
[1]; x1 = 0.7934
  refractive index: 1.38918 ± 6e-05
[1]; x1 = 0.8479
  refractive index: 1.3901 ± 5e-05
[1]; x1 = 0.8631
  refractive index: 1.39032 ± 5e-05
[1]; x1 = 0.8964
  refractive index: 1.3907 ± 5e-05
[1]; x1 = 0.9255
  refractive index: 1.39109 ± 5e-05
[2]; x1 = 0.0406
  speed of sound: 1103 ± 1 m/s
  mass density: 783.42 ± 0.22 kg/m3
[2]; x1 = 0.0518
  speed of sound: 1104 ± 1 m/s
  mass density: 782.76 ± 0.22 kg/m3
[2]; x1 = 0.0974
  speed of sound: 1103 ± 1 m/s
  mass density: 780.08 ± 0.22 kg/m3
[2]; x1 = 0.0984
  speed of sound: 1104 ± 1 m/s
  mass density: 779.91 ± 0.22 kg/m3
[2]; x1 = 0.1493
  speed of sound: 1105 ± 1 m/s
  mass density: 777.55 ± 0.21 kg/m3
[2]; x1 = 0.198
  speed of sound: 1107 ± 1 m/s
  mass density: 775.42 ± 0.21 kg/m3
[2]; x1 = 0.2051
  speed of sound: 1107 ± 1 m/s
  mass density: 775.26 ± 0.21 kg/m3
[2]; x1 = 0.2448
  speed of sound: 1108 ± 1 m/s
  mass density: 773.83 ± 0.2 kg/m3
[2]; x1 = 0.2974
  speed of sound: 1109 ± 1 m/s
  mass density: 772.2 ± 0.2 kg/m3
[2]; x1 = 0.3373
  speed of sound: 1109 ± 1 m/s
  mass density: 770.98 ± 0.19 kg/m3
[2]; x1 = 0.3581
  speed of sound: 1109 ± 1 m/s
  mass density: 770.41 ± 0.19 kg/m3
[2]; x1 = 0.3783
  speed of sound: 1109 ± 1 m/s
  mass density: 769.88 ± 0.19 kg/m3
[2]; x1 = 0.3922
  speed of sound: 1111 ± 1 m/s
  mass density: 769.7 ± 0.19 kg/m3
[2]; x1 = 0.4633
  speed of sound: 1111 ± 1 m/s
  mass density: 767.85 ± 0.18 kg/m3
[2]; x1 = 0.4954
  speed of sound: 1113 ± 1 m/s
  mass density: 767.15 ± 0.18 kg/m3
[2]; x1 = 0.5003
  speed of sound: 1111 ± 1 m/s
  mass density: 767.05 ± 0.18 kg/m3
[2]; x1 = 0.5598
  speed of sound: 1112 ± 1 m/s
  mass density: 765.86 ± 0.17 kg/m3
[2]; x1 = 0.5955
  speed of sound: 1114 ± 1 m/s
  mass density: 765.21 ± 0.16 kg/m3
[2]; x1 = 0.6138
  speed of sound: 1113 ± 1 m/s
  mass density: 764.85 ± 0.16 kg/m3
[2]; x1 = 0.6463
  speed of sound: 1113 ± 1 m/s
  mass density: 764.27 ± 0.16 kg/m3
[2]; x1 = 0.6737
  speed of sound: 1114 ± 1 m/s
  mass density: 763.79 ± 0.16 kg/m3
[2]; x1 = 0.6923
  speed of sound: 1114 ± 1 m/s
  mass density: 763.48 ± 0.15 kg/m3
[2]; x1 = 0.721
  speed of sound: 1114 ± 1 m/s
  mass density: 762.99 ± 0.15 kg/m3
[2]; x1 = 0.7904
  speed of sound: 1114 ± 1 m/s
  mass density: 761.8 ± 0.14 kg/m3
[2]; x1 = 0.7934
  speed of sound: 1114 ± 1 m/s
  mass density: 761.75 ± 0.14 kg/m3
[2]; x1 = 0.8479
  speed of sound: 1114 ± 1 m/s
  mass density: 760.78 ± 0.14 kg/m3
[2]; x1 = 0.8631
  speed of sound: 1114 ± 1 m/s
  mass density: 760.5 ± 0.14 kg/m3
[2]; x1 = 0.8964
  speed of sound: 1115 ± 1 m/s
  mass density: 759.86 ± 0.14 kg/m3
[2]; x1 = 0.9255
  speed of sound: 1114 ± 1 m/s
  mass density: 759.26 ± 0.14 kg/m3
